Measurements published in article PMC10366102, “Dose escalation and expansion cohorts in patients with advanced breast cancer in a Phase I study of the CDK7-inhibitor samuraciclib” (Nature Communications, 2023).
Where two headings read alike, the source gives them in different places.

Test system: patients with advanced/metastatic solid tumors
Settings: for TEAE: Upper respiratory tract infection / TEAE: Urinary tract infection: Module 1A
Excerpt: In this Phase I study (ClinicalTrials.gov: NCT03363893), male and female patients with locally advanced/metastatic solid tumors received samuraciclib in dose escalation cohorts (at least 3 and up to 6 evaluable patients permitted per dose cohort) to determine the MTD (see Supplementary Information for definition). An additional 6 to 12 male or female patients with breast cancer were enrolled to a paired biopsy cohort to evaluate the pharmacodynamic effects of samuraciclib in tumor tissue, initiated after determining the minimally biologically active dose, defined by a 25-30% reduction in signal for pPolII in lymphocytes after 21 days of dosing or more.
For inclusion in the paired biopsy cohort, only patients with breast cancer with lesions amenable to biopsy were recruited. A full list of inclusion/exclusion criteria is provided in the Supplementary Information.
Patients initially received an oral dose of samuraciclib at Cycle 0, Day 1 for PK evaluation, followed by a 48-hour interval then continuous daily dosing for 21 days (Cycle 1). Dosing continued in 21-day cycles until the patient no longer gained clinical benefit or had intolerable toxicity. At least 3 evaluable patients in a cohort had to complete Cycle 1 before any dose escalation was considered.
As Module 1A was a ‘first time in human’ safety study, initial efficacy was evaluated as a secondary endpoint using the DCR, defined as the percentage of patients with a complete response (CR), PR or stabilization of disease at first on treatment RECIST assessment. To allow for the evaluation of longer-term benefit, Module 1B-1 and Module 2A used the CBR as a secondary endpoint, defined as the percentage of patients with CR or PR or stabilization of disease for at least 24 weeks between enrollment and disease progression or death due to any cause. In addition, the ORR was assessed, defined as the percentage of patients who had at least 1 objective response (CR or PR) prior to any evidence of progression. […] Statistical analyses of PFS using the Kaplan-Meier method were performed on the ITT population - defined as all enrolled patients. AEs were summarized from the Safety Population - defined as all patients who received at least 1 dose of samuraciclib - using the MedDRA system organ class (SOC), preferred term (PT), and graded according to CTCAE V5.0 (Supplementary Information). […]
In the Module 1A dose escalation cohort, patients initially received 1 oral dose of samuraciclib at Cycle 0, Day 1. In the absence of a dose-limiting toxicity (DLT) and following a washout period of at least 48 hours, patients could then enter Cycle 1 and receive samuraciclib daily. In the continued absence of a DLT, each patient could continue to receive samuraciclib daily for a minimum of 21 days (Cycle 1) and could continue to receive additional 21-day cycles of treatment until they were no longer gaining […]
treatment visit was conducted (within 3 days after the last samuraciclib dose). An end of study visit was conducted 28 to 35 days after the last dose of samuraciclib.
At least 3 and up to 6 evaluable patients were required for each dose cohort. At least 3 evaluable patients in a cohort had to complete at least one 21-day cycle of dosing before a Safety Review Committee (SRC), composed of study site investigators and Sponsor medical personnel, could review and initiate the next cohort and dose escalation. Within the initial cohorts there was a staggered interval, with subsequent patients not being dosed until the first patient within each cohort had completed 7 days of samuraciclib monotherapy.
Patient enrolment in the dose escalation cohort proceeded according to a Bayesian model rolling 6 […]
2. If 1 patient experienced a DLT in a group of 3 or more evaluable patients, then the cohort was expanded to include 6 evaluable patients. […]
dose escalation occurred.
3. If at least 2 patients experienced a DLT in a cohort of up to 6 patients, irrespective of the number of […]

## CC(C)c1cnn2c(NCc3ccccc3)cc(NC[C@H]3CCNC[C@@H]3O)nc12 [samuraciclib, Samuraciclib]
120 mg OD N=6
  TEAE: Upper respiratory tract infection: 5 (83.3) participants (%)
  TEAE: Urinary tract infection: 0 participants (%)
240 mg OD N=12
  TEAE: Upper respiratory tract infection: 1 (8.3) participants (%)
  TEAE: Urinary tract infection: 1 (8.3) participants (%)
360 mg OD N=12
  TEAE: Upper respiratory tract infection: 1 (8.3) participants (%)
  TEAE: Urinary tract infection: 1 (8.3) participants (%)
480 mg OD N=6
  TEAE: Upper respiratory tract infection: 0 participants (%)
  TEAE: Urinary tract infection: 1 (16.7) participants (%)
OD
  Lowest dose tested in humans that has demonstrated biological activity: 120 mg
  MBAD originally declared by the SRC: 240 mg
OD in a fasted state
  Non-tolerated dose: 480 mg
both, human, in vivo
  ALT increased; All AEs: 8 (18.2) patients (%)
  ALT increased; Grade ≥3: 1 (2.3) patients (%)
  AST increased; All AEs: 7 (15.9) patients (%)
  AST increased; Grade ≥3: 0 patients (%)
  Abdominal pain upper; All AEs: 4 (9.1) patients (%)
  Abdominal pain upper; Grade ≥3: 0 patients (%)
  Abdominal pain; All AEs: 12 (27.3) patients (%)
  Abdominal pain; Grade ≥3: 0 patients (%)
  Anemia; All AEs: 10 (22.7) patients (%)
  Anemia; Grade ≥3: 2 (4.5) patients (%)
  Any treatment-emergent AE; All AEs: 44 (100.0) patients (%)
  Any treatment-emergent AE; Grade ≥3: 21 (47.7) patients (%)
  Back pain; All AEs: 6 (13.6) patients (%)
  Back pain; Grade ≥3: 0 patients (%)
  Constipation; All AEs: 7 (15.9) patients (%)
  Constipation; Grade ≥3: 0 patients (%)
  Cough; All AEs: 8 (18.2) patients (%)
  Cough; Grade ≥3: 0 patients (%)
  Decreased appetite; All AEs: 9 (20.5) patients (%)
  Decreased appetite; Grade ≥3: 1 (2.3) patients (%)
  Diarrhea; All AEs: 38 (86.4) patients (%)
  Diarrhea; Grade ≥3: 2 (4.5) patients (%)
  Dizziness; All AEs: 2 (4.5) patients (%)
  Dizziness; Grade ≥3: 0 patients (%)
  Drug-related: ALT increased: 3 (6.8) participants (%)
  Drug-related: AST increased: 4 (9.1) participants (%)
  Drug-related: Abdominal pain: 8 (18.2) participants (%)
  Drug-related: Abdominal pain upper: 2 (4.5) participants (%)
  Drug-related: Anaemia: 3 (6.8) participants (%)
  Drug-related: Blood creatinine increased: 3 (6.8) participants (%)
  Drug-related: Decreased appetite: 8 (18.2) participants (%)
  Drug-related: Dehydration: 2 (4.5) participants (%)
  Drug-related: Diarrhoea: 36 (81.8) participants (%)
  Drug-related: Dry mouth: 2 (4.5) participants (%)
  Drug-related: Dyspepsia: 2 (4.5) participants (%)
  Drug-related: Dysphagia: 2 (4.5) participants (%)
  Drug-related: Fatigue: 14 (31.8) participants (%)
  Drug-related: Gastroesophageal reflux disease: 3 (6.8) participants (%)
  Drug-related: Mucosal inflammation: 2 (4.5) participants (%)
  Drug-related: Nausea: 34 (77.3) participants (%)
  Drug-related: Thrombocytopenia: 3 (6.8) participants (%)
  Drug-related: Vomiting: 35 (79.5) participants (%)
  Drug-related: Weight decreased: 4 (9.1) participants (%)
  Dysgeusia; All AEs: 1 (2.3) patients (%)
  Dysgeusia; Grade ≥3: 0 patients (%)
  Dysphagia; All AEs: 2 (4.5) patients (%)
  Dysphagia; Grade ≥3: 0 patients (%)
  Dyspnea; All AEs: 6 (13.6) patients (%)
  Dyspnea; Grade ≥3: 2 (4.5) patients (%)
  Fatigue; All AEs: 17 (38.6) patients (%)
  Fatigue; Grade ≥3: 0 patients (%)
  Grade ≥3: GGT increased: 2 (4.5) participants (%)
  Grade ≥3: Malignant neoplasm progression: 2 (4.5) participants (%)
  Grade ≥3: Pulmonary embolism: 2 (4.5) participants (%)
  Grade ≥3: Thrombocytopenia: 2 (4.5) participants (%)
  Headache; All AEs: 4 (9.1) patients (%)
  Headache; Grade ≥3: 0 patients (%)
  Hyperglycemia; All AEs: 1 (2.3) patients (%)
  Hyperglycemia; Grade ≥3: 0 patients (%)
  Hypocalcaemia; All AEs: 2 (4.5) patients (%)
  Hypocalcaemia; Grade ≥3: 0 patients (%)
  Hypokalaemia; All AEs: 0 patients (%)
  Hypokalaemia; Grade ≥3: 0 patients (%)
  Nausea; All AEs: 34 (77.3) patients (%)
  Nausea; Grade ≥3: 0 patients (%)
  Participants with any drug-related TEAE: 44 (100.0) participants (%)
  Rash; All AEs: 1 (2.3) patients (%)
  Rash; Grade ≥3: 0 patients (%)
  Stomatitis; All AEs: 1 (2.3) patients (%)
  Stomatitis; Grade ≥3: 0 patients (%)
  Taste disorder; All AEs: 0 patients (%)
  Taste disorder; Grade ≥3: 0 patients (%)
  Thrombocytopenia reported as Grade ≥3: 2 patients
  Upper respiratory tract infection; All AEs: 8 (18.2) patients (%)
  Upper respiratory tract infection; Grade ≥3: 0 patients (%)
  Urinary tract infection; All AEs: 5 (11.4) patients (%)
  Urinary tract infection; Grade ≥3: 0 patients (%)
  Vomiting; All AEs: 36 (81.8) patients (%)
  Vomiting; Grade ≥3: 1 (2.3) patients (%)
  Weight decreased; All AEs: 4 (9.1) patients (%)
  Weight decreased; Grade ≥3: 1 (2.3) patients (%)
both, human, in vivo, 21 days
  DLT: Decreased appetite: 1 (3.0) patients (%)
  DLT: Diarrhoea: 1 (3.0) patients (%)
  DLT: Gastroesophageal reflux disease: 1 (3.0) patients (%)
  DLT: Nausea: 1 (3.0) patients (%)
  DLT: Oesophagitis: 1 (3.0) patients (%)
  DLT: Stomatitis: 1 (3.0) patients (%)
  DLT: Thrombocytopenia: 1 (3.0) patients (%)
  DLT: Vomiting: 2 (6.1) patients (%)
  DLT: Weight decreased: 1 (3.0) patients (%)
  Patients with a dose-limiting toxicity: 3/6
  Patients with any DLT: 6 (18.2) patients (%)
both, human, in vivo, po
  Drug-related: Oral pain: 2 (4.5) participants (%)
During therapy, over the first 15 days then plateau, 240 mg OD and 360 mg OD
  Drop in platelet counts: ~20%
Once daily, monotherapy
  Maximum tolerated dose (MTD): 360 mg
